Source: patent US10150737B2, “Compounds for controlling arthropods” (priority 2013, dated 2018)
Like-named read-outs stand apart in the source and are kept apart here.

Key:
[1] = logP determination by HPLC on a reversed-phase column (C18); assay type: physicochemical; conditions: for logP^a): HPLC-MS method a); for log P: HPLC-MS
Boophilus microplus = Boophilus microplus - injection test; assay type: in vivo; conditions: application rate 20 μg/animal, injection into engorged adult female ticks, after 7 days; for pest or weed control at 0.02 mg: Rhipicephalus microplus, 168 h, read-out: efficacy (laying of fertile eggs)
Protocol: Solvent: dimethyl sulphoxide
To produce an appropriate active ingredient formulation, 10 mg of active ingredient are mixed with 0.5 ml of solvent and the concentrate is diluted with solvent to the desired concentration.
1 μl of the active ingredient solution is injected into the abdomen of 5 engorged adult female cattle ticks (Boophilus microplus). The animals are transferred into dishes and kept in a climate-controlled room.
Efficacy is assessed after 7 days by laying of fertile eggs. Eggs which are not visibly fertile are stored in a climate-controlled cabinet until the larvae hatch after about 42 days. An efficacy of 100% means that none of the ticks has laid any fertile eggs; 0% means that all the eggs are fertile.

Phaedon cochleariae = Phaedon cochleariae - spray test; assay type: in vivo; conditions: larvae on Chinese cabbage leaf discs, after 7 days
Protocol: Solvent: 78.0 parts by weight of acetone and 1.5 parts by weight of dimethylformamide
Emulsifier: alkylaryl polyglycol ether
To produce an appropriate active ingredient formulation, 1 part by weight of active ingredient is dissolved using the specified parts by weight of solvent and made up with water containing an emulsifier concentration of 1000 ppm until the desired concentration is attained. To produce further test concentrations, the preparation is diluted with emulsifier-containing water.
Discs of Chinese cabbage leaves (Brassica pekinensis) are sprayed with an active ingredient formulation of the desired concentration and, after drying, populated with larvae of the mustard beetle (Phaedon cochleariae).
After 7 days, efficacy in % is determined. 100% means that all the beetle larvae have been killed; 0% means that no beetle larvae have been killed.

[2] = reversed-phase column (C18), Table I-T3
[3] = HPLC, C18 reversed phase, acetonitrile/water with formic acid, EEC Directive 79/831 Annex V.A8

SMILES	log P [1, 2]	also measured
Nc1c(Cl)cc(C(O)(C(F)(F)F)C(F)(F)F)cc1Cl [2-(4-amino-3,5-dichlorphenyl)-1,1,1,3,3,3-hexafluoropropan-2-ol]	–	logP [1]: 3.04
Cc1cc(C(F)(C(F)(F)F)C(F)(F)F)cc(C)c1-c1ccn(-c2ccc(Cl)c(C(=O)NC3CC3)c2)n1 [I-T2-1, 2-chloro-N-cyclopropyl-5-[3-[2,6-dimethyl-4-[1,2,2,2-tetrafluoro-1-(trifluoromethyl)ethyl]phenyl]pyrazol-1-yl]benzamide]	–	pest or weed control at 0.02 mg (Boophilus microplus): 100%
Cc1cc(C(F)(C(F)(F)F)C(F)(F)F)cc(C)c1-n1cc(-c2cc(C(=O)NC3CC3)c(Cl)cc2F)cn1 [I-T3-14]	–	logP^a) [1]: 4.5; logP^a) [1, 2]: 4.5
COc1cc(C(F)(F)F)cc(F)c1-n1cc(-c2ccc(Cl)c(C(=O)NC3CC3)c2)cn1 [I-T3-50, 2-chloro-N-cyclopropyl-5-[1-[2-fluoro-6-methoxy-4-(trifluoromethyl)phenyl]pyrazol-4-yl]benzamide]	–	pest or weed control at 0.02 mg (Boophilus microplus): 100%
CN(C(=O)c1cc(-c2cnn(-c3ccc(C(F)(C(F)(F)F)C(F)(F)F)cc3C(F)(F)F)c2)ccc1Cl)C1CC1 [I-T3-134]	4.9	logP [1, 3]: 4.88; logP^a) ([1]; reversed-phase column (C18)): 4.9
Cc1cc(C(F)(C(F)(F)F)C(F)(F)F)cc(C)c1-n1cc(-c2cnc(C3CC3)c(C(=O)N(C)C3CC3)c2)cn1 [I-T3-142]	4.6	efficacy (laying of fertile eggs) (Boophilus microplus): 100%; logP^a) ([1]; reversed-phase column (C18)): 4.6
CC[S+]([O-])c1cc(C(F)(C(F)(F)F)C(F)(F)F)cnc1-n1cc(-c2ccc(Cl)c(C(=O)NC3(C#N)CC3)c2)cn1 (stereo not shown) [I-T3-153]	3.7	logP^a) ([1]; reversed-phase column (C18)): 3.7; efficacy (Phaedon cochleariae; application rate 100 g/ha): 100%
CCSc1cc(C(F)(C(F)(F)F)C(F)(F)F)cnc1-n1cc(-c2ccc(Cl)c(C(=O)NC3CC3)c2)cn1 [I-T3-156, 2-Chloro-N-cyclopropyl-5-{1-[3-(ethylsulphanyl)-5-(1,1,1,2,3,3,3-heptafluoropropan-2-yl)pyridin-2-yl]-1H-pyrazol-4-yl}benzamide]	4.7	logP^a) ([1]; reversed-phase column (C18)): 4.7
CC[S+]([O-])c1cc(C(F)(C(F)(F)F)C(F)(F)F)cnc1-n1cc(-c2ccc(Cl)c(C(=O)NC3CC3)c2)cn1 (stereo not shown) [I-T3-157, 2-Chloro-N-cyclopropyl-5-{1-[3-(ethylsulphinyl)-5-(1,1,1,2,3,3,3-heptafluoropropan-2-yl)pyridin-2-yl]-1H-pyrazol-4-yl}benzamide]	3.8	logP^a) ([1]; reversed-phase column (C18)): 3.8
NC(=S)C1(NC(=O)c2cc(-c3cnn(-c4c(Cl)cc(C(F)(C(F)(F)F)C(F)(F)F)cc4C(F)(F)F)c3)cnc2Cl)CC1 [I-T3-159]	3.8	logP^a) ([1]; reversed-phase column (C18)): 3.8
CSc1cc(C(F)(C(F)(F)F)C(F)(F)F)cnc1-n1cc(-c2ccc(Cl)c(C(=O)NC3(C#N)CC3)c2)cn1 [I-T3-166]	4.3	–
N#CC1(NC(=O)c2cc(-c3cnn(-c4ncc(C(F)(C(F)(F)F)C(F)(F)F)cc4SCC(F)(F)F)c3)ccc2Cl)CC1 [I-T3-171]	4.5	efficacy (Phaedon cochleariae; application rate 100 g/ha): 100%
N#CC1(NC(=O)c2cc(-c3cnn(-c4c(F)c(F)c(C(F)(F)F)c(F)c4F)c3)ccc2Cl)CC1 [I-T3-188]	3.4	efficacy (Phaedon cochleariae; application rate 500 g/ha): 100%
O=C(NC1CC1)c1cc(-c2cnn(-c3c(Cl)cc(C(F)(C(F)(F)F)C(F)(F)F)cc3C(F)F)c2)ccc1Cl [I-T3-193]	4.4	–
NC(=O)C1(NC(=O)c2cc(-c3cnn(-c4c(F)c(F)c(C(F)(F)F)c(F)c4F)c3)ccc2Cl)CC1 [I-T3-194]	2.8	–
CCS(=O)(=O)c1cc(C(F)(C(F)(F)F)C(F)(F)F)cc(Cl)c1-n1cc(-c2ccc(Cl)c(C(=O)NC3(C#N)CC3)c2)cn1 [I-T3-201]	4.0	–
CCSc1cc(C(F)(C(F)(F)F)C(F)(F)F)cc(C)c1-n1cc(-c2ccc(Cl)c(C(=O)NC3(C#N)CC3)c2)cn1 [I-T3-202]	4.5	–
CCSc1cc(C(F)(C(F)(F)F)C(F)(F)F)cc(C)c1-n1cc(-c2ccc(Cl)c(C(=O)NC3CC3)c2)cn1 [I-T3-203]	4.6	–
CN(C(=O)c1cc(-c2cnn(-c3c(Cl)cc(C(F)(C(F)(F)F)C(F)(F)F)cc3C#N)c2)cnc1Cl)C1CC1 [I-T3-204]	3.9	–
N#Cc1cc(C(F)(C(F)(F)F)C(F)(F)F)cc(Cl)c1-n1cc(-c2cnc(Cl)c(C(=O)NC3CC3)c2)cn1 [I-T3-205]	3.5	–
CC[S+]([O-])c1cc(C(F)(C(F)(F)F)C(F)(F)F)cc(C)c1-n1cc(-c2ccc(Cl)c(C(=O)NC3(C#N)CC3)c2)cn1 (stereo not shown) [I-T3-206]	3.6	–

SMILES	log P [1, 2]	also measured
N#Cc1cc(C(F)(C(F)(F)F)C(F)(F)F)cc(Cl)c1-n1cc(-c2cnc(Cl)c(C(=O)NC3(C#N)CC3)c2)cn1 [I-T3-207]	3.5	–
CN(C(=O)c1cc(-c2cnn(-c3c(Cl)cc(C(F)(C(F)(F)F)C(F)(F)F)cc3OC(F)(F)F)c2)cnc1Cl)C1CC1 [I-T3-208]	4.6	–
CCS(=O)(=O)c1cc(C(F)(C(F)(F)F)C(F)(F)F)cc(C)c1-n1cc(-c2ccc(Cl)c(C(=O)NC3(C#N)CC3)c2)cn1 [I-T3-209]	3.8	–
CCS(=O)(=O)c1cc(C(F)(C(F)(F)F)C(F)(F)F)cc(C)c1-n1cc(-c2ccc(Cl)c(C(=O)NC3CC3)c2)cn1 [I-T3-210]	3.9	–
CCOc1cc(C(F)(C(F)(F)F)C(F)(F)F)cc(OCC)c1-n1cc(-c2cnc(Cl)c(C(=O)N(C)C3CC3)c2)cn1 [I-T3-211]	4.7	–
N#CC1(NC(=O)c2cc(-c3cnn(-c4c(Cl)cc(C(F)(C(F)(F)F)C(F)(F)F)cc4I)c3)ccc2Cl)CC1 [I-T3-212]	4.3	–
O=C(NC1CC1)c1cc(-c2cnn(-c3c(Cl)cc(C(F)(C(F)(F)F)C(F)(F)F)cc3I)c2)ccc1Cl [I-T3-213]	4.4	–
O=C(NC1CC1)c1cc(-c2cnn(-c3c(Cl)cc(C(F)(C(F)(F)F)C(F)(F)F)cc3OC(F)F)c2)ccc1Cl [I-T3-214]	4.3	–
N#CC1(NC(=O)c2cc(-c3cnn(-c4c(Cl)cc(C(F)(C(F)(F)F)C(F)(F)F)cc4OC(F)F)c3)ccc2Cl)CC1 [I-T3-215]	4.1	–
CN(C(=O)c1cc(-c2cnn(-c3c(Cl)cc(C(F)(C(F)(F)F)C(F)(F)F)cc3OC(F)F)c2)ccc1Cl)C1CC1 [I-T3-216]	4.7	–
CN(C(=O)c1cc(-c2cnn(-c3c(Cl)cc(C(F)(C(F)(F)F)C(F)(F)F)cc3OC(F)F)c2)cnc1Cl)C1CC1 [I-T3-217]	4.2	–
N#CC1(NC(=O)c2cc(-c3cnn(-c4c(Cl)cc(C(F)(C(F)(F)F)C(F)(F)F)cc4OC(F)F)c3)cnc2Cl)CC1 [I-T3-218]	3.7	–
CN(C(=O)c1cc(-c2cnn(-c3c(Cl)cc(C(F)(C(F)(F)F)C(F)(F)F)cc3OC(F)(F)F)c2)ccc1Cl)C1CC1 [I-T3-219]	5.1	–
CN(C(=O)c1cc(-c2cnn(-c3c(Cl)cc(C(O)(C(F)(F)F)C(F)(F)F)cc3Cl)c2)cnc1Cl)C1CC1 [I-T3-220]	3.4	efficacy (Phaedon cochleariae; application rate 100 g/ha): 100%
O=C(NC1CC1)c1cc(-c2cnn(-c3c(I)cc(C(F)(C(F)(F)F)C(F)(F)F)cc3OC(F)(F)F)c2)ccc1Cl [I-T3-224]	4.7	–
CN(C(=O)c1cc(-c2cnn(-c3c(I)cc(C(F)(C(F)(F)F)C(F)(F)F)cc3OC(F)(F)F)c2)ccc1Cl)C1CC1 [I-T3-225]	5.2	–
N#CC1(NC(=O)c2cc(-c3cnn(-c4c(I)cc(C(F)(C(F)(F)F)C(F)(F)F)cc4OC(F)(F)F)c3)ccc2Cl)CC1 [I-T3-226]	4.6	–
O=C(NC1CC1)c1cc(-c2cnn(-c3c(I)cc(C(F)(C(F)(F)F)C(F)(F)F)cc3C(F)(F)F)c2)ccc1Cl [I-T3-227]	4.5	–
N#CC1(NC(=O)c2cc(-c3cnn(-c4c(I)cc(C(F)(C(F)(F)F)C(F)(F)F)cc4C(F)(F)F)c3)ccc2Cl)CC1 [I-T3-228]	4.4	–
CN(C(=O)c1cc(-c2cnn(-c3c(I)cc(C(F)(C(F)(F)F)C(F)(F)F)cc3C(F)(F)F)c2)ccc1Cl)C1CC1 [I-T3-229]	5.1	–
Cc1cc(C(F)(C(F)(F)F)C(F)(F)F)cc(C)c1-n1ccc(-c2ccc(Cl)c(C(=O)NC3(C#N)CC3)c2)c1 [I-T46-1]	–	logP [1, 3]: 4.90
